{
  "source": "ChEMBL document CHEMBL4138169",
  "about": "“Biological activity of dihydropyrimidinone (DHPM) derivatives: A systematic review” (Eur J Med Chem, 2018)",
  "biological_target": "Cav1.2 (voltage-dependent L-type calcium channel subunit alpha-1C) (Homo sapiens, UniProt Q13936)",
  "sequence (Q13936 whole entry)": "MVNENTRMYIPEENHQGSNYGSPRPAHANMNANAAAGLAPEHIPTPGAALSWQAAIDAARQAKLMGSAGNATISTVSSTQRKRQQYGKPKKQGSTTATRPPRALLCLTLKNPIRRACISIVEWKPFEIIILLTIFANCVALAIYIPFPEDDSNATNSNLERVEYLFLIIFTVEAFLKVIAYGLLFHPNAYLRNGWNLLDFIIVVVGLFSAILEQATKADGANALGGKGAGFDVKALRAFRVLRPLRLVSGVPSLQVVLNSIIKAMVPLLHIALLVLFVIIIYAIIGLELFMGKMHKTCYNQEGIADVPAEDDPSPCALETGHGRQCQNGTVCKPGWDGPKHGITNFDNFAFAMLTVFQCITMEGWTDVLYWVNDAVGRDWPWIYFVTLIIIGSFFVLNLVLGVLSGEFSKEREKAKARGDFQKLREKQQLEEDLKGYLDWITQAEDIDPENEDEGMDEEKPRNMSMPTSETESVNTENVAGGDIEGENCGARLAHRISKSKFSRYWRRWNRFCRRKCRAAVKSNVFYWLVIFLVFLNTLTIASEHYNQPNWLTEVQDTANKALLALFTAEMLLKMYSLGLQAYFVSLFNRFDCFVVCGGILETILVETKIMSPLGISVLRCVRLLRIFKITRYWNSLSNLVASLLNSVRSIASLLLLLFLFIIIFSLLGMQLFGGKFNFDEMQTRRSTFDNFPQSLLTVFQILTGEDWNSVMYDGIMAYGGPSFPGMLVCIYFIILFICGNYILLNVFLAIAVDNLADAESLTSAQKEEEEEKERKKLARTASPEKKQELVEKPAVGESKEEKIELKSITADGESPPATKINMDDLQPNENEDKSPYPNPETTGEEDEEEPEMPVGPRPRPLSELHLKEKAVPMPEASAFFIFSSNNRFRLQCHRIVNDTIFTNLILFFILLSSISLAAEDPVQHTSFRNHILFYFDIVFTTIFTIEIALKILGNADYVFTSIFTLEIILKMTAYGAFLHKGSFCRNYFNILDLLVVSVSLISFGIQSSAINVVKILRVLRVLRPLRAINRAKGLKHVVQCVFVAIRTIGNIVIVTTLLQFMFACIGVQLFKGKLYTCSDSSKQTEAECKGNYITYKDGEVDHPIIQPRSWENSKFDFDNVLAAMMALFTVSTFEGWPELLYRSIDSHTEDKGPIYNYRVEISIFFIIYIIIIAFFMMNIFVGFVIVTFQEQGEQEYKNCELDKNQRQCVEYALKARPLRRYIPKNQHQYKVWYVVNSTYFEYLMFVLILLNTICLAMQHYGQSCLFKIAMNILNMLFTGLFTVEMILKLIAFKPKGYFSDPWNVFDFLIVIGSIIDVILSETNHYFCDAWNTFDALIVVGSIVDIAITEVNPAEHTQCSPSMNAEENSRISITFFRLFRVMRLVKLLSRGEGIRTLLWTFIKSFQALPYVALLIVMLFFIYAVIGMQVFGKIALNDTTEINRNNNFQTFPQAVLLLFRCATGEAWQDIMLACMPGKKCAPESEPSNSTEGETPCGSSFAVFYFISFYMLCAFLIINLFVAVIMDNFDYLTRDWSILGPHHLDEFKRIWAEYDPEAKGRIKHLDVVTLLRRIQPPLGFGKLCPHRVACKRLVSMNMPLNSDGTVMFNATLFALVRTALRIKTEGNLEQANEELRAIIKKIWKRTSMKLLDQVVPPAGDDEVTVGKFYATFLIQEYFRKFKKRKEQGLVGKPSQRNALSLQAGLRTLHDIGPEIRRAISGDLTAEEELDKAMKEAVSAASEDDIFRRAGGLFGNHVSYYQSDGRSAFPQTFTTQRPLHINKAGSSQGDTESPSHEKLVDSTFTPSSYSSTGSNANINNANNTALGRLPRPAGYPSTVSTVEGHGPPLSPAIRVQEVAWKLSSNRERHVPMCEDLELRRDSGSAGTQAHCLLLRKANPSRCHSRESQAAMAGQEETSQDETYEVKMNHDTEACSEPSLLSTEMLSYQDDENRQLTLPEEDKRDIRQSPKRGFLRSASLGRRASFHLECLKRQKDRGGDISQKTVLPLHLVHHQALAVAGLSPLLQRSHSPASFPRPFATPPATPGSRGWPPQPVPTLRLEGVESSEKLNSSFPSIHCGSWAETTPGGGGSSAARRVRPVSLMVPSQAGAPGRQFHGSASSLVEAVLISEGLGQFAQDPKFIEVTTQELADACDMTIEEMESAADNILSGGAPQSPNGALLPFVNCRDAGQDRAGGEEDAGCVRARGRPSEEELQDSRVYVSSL",
  "experiment": "Inhibition of human Cav1.2 expressed in HEK293 cells assessed as reduction in Ca2+ uptake at 100 uM measured as first 2 mins sampled at a frequency of one sample every second and the last 12 min at a frequency of one sample every 5 secs by fluo-3AM-based FLIPR assay",
  "type": "cell-based",
  "settings": "HEK293 cells that express human Cav1.2",
  "data": [
    {"smiles": "CCOC(=O)C1=C(C)NC(=S)NC1c1cccc(O)c1", "note": "(stereo unspecified) [MONASTROL]", "values": [
      {"measurement": "inhibition at 100 µM", "result": 70, "unit": "%"}
    ]}
  ]
}
